In one assay the target is T1, human PRMT8 (Homo sapiens, UniProt Q9NR22).
T1 construct: Full-length human PRMT8 (NM_019854.4) isoform 1 transcript clone; GST (N, cleaved yes); made in house; host or cells: E. coli BL21(DE3) Gold
Briefly: PRMT8 Biochemical Assay (3H-SAM Flashplate, peptide substrate). As to conditions: 30 min preincubation. The source says:
Peptide representative of human histone H4 residues 31-45 was synthesized with an N-terminal linker-affinity tag motif and a C-terminal amide cap by 21st Century Biochemicals. The peptide was purified by high-performance liquid chromatography (HPLC) to greater than 95% purity and confirmed by liquid chromatography mass spectrometry (LC-MS). The sequence was Biot-Ahx-[…]-amide (SEQ ID NO:8).
The resulting construct encodes an N-terminal GST tag and a thrombin cleavage sequence
GST-tagged PRMT8 was eluted with 50 mM Tris, 2 mM glutathione, pH 7.8. Pooled fractions were cleaved by thrombin (10 U) and dialysed in buffer A. GST was removed by reloading the cleaved protein sample onto glutathione sepharose column and PRMT8 was collected in the flow-through fractions. PRMT8 was purified further by ceramic hydroxyapatite chromatography. The column was washed with 50 mM phosphate buffer, 100 mM NaCl, 5% glycerol, 5 mM 3-mercaptoethanol, pH 7.8 and PRMT8 was eluted by 100 mM phosphate in the same buffer. Protein was concentrated and buffer was exchanged to 50 mM Tris, 300 mM NaCl, 10% glycerol, 5 mM β-mercaptoethanol, pH 7.8 by ultrafiltration. The purity of recovered protein was 89%.
General Procedure for PRMT8 Enzyme Assays on Peptide Substrates.
The assays were all performed in a buffer consisting of 20 mM Bicine (pH=7.6), 1 mM TCEP, 0.005% BSG, and 0.002% Tween 20, prepared on the day of use. Compounds in 100% DMSO (1 ul) were spotted into a polypropylene 384-well V-bottom plates (Greiner) using a Platemate Plus outfitted with a 384-channel head (Thermo Scientific). DMSO (1 ul) was added to Columns 11, 12, 23, 24, rows A-H for the maximum signal control and 1 ul of SAH, a known product and inhibitor of PRMT8, was added to columns 11, 12, 23, 24, rows I-P for the minimum signal control. A cocktail (40 ul) containing the PRMT8 enzyme was added by Multidrop Combi (Thermo-Fisher). The compounds were allowed to incubate with PRMT8 for 30 min at room temperature, then a cocktail (10 ul) containing ^3H-SAM and peptide was added to initiate the reaction (final volume=51 ul). The final concentrations of the components were as follows: PRMT8 was 1.5 nM, ^3H-SAM was 50 nM, non-radiolabeled SAM was 550 nM, peptide was 150 nM, SAH in the minimum signal control wells was 1 mM, and the DMSO concentration was 2%. The assays were stopped by the addition of non-radiolabeled SAM (10 ul) to a final concentration of 400 uM, which dilutes the ^3H-SAM to a level where its incorporation into the peptide substrate is no longer detectable. 50 ul of the reaction in the 384-well polypropylene plate was then transferred to a 384-well Flashplate and the biotinylated peptides were allowed to bind to the streptavidin surface for at least 1 hour before being washed once with 0.1% Tween20 in a Biotek ELx405 plate washer. The plates were then read in a PerkinElmer TopCount plate reader to measure the quantity of ^3H-labeled peptide bound to the Flashplate surface, measured as disintegrations per minute (dpm) or alternatively, referred to as counts per minute (cpm).
(§1) Where dpm=disintegrations per minute, cmpd=signal in assay well, and min and max are the respective minimum and maximum signal controls.
(§2) Where top and bottom are the normally allowed to float, but may be fixed at 100 or 0 respectively in a 3-parameter fit. The Hill Coefficient normally allowed to float but may also be fixed at 1 in a 3-parameter fit. Y is the % inhibition and X is the compound concentration.

In the next assay the target is T2, human PRMT3 (Homo sapiens, UniProt O60678).
T2 construct: GST-tagged PRMT3; made in house; host or cells: E. coli BL21(DE3) Gold
T2 sequence (O60678 with tags, fused parts or gaps): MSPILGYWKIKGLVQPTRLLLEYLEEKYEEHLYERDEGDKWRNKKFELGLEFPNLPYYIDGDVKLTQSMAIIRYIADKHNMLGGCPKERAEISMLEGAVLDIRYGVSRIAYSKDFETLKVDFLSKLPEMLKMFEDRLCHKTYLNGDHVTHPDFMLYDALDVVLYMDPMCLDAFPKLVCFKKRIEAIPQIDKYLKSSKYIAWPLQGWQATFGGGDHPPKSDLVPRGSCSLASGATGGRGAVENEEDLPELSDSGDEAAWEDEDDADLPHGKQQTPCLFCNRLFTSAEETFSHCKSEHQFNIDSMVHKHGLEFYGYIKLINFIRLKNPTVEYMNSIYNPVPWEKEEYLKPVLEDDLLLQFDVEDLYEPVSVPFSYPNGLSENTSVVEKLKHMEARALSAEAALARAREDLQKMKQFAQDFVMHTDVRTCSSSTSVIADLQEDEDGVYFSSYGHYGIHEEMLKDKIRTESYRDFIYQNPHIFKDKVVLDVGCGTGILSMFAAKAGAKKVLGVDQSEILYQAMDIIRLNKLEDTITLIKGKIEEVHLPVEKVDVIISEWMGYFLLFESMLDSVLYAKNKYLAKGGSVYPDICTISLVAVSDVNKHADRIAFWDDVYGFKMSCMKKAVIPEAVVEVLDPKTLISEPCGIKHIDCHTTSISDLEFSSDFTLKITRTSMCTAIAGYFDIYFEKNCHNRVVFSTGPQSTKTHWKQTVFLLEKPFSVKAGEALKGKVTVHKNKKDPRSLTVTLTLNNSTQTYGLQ
Briefly: PRMT3 Biochemical Assay (3H-SAM Flashplate, peptide substrate). As to conditions: 30 min preincubation.
Text: Peptide containing the classic RMT substrate motif was synthesized with an N-terminal linker-affinity tag motif and a C-terminal amide cap by 21st Century Biochemicals. The peptide was purified by high-performance liquid chromatography (HPLC) to greater than 95% purity and confirmed by liquid chromatography mass spectrometry (LC-MS). The sequence was Biot-Ahx-[…]-amide (SEQ ID NO:11).
Full-length human PRMT3 (NM_005788.3) isoform 1 transcript clone was amplified from an HEK 293 cDNA library and subcloned into pGEX-KG (GE Life Sciences). The resulting construct encodes an N-terminal GST tag and a thrombin cleavage sequence
GST-tagged PRMT3 was eluted with 50 mM Tris, 2 mM glutathione, pH 7.1 and 50 mM Tris, 20 mM glutathione, pH 7.1. Pooled fractions were dialysed in 20 mM Tris, 50 mM NaCl, 5% glycerol, 1 mM EDTA, 1 mM DTT, pH7.5 (Buffer B) and applied to a Q Sepharose Fast Flow column. GST-tagged PRMT3 was eluted by 500 mM NaCl in buffer B. Pooled fractions were dialyzed in 25 mM phosphate buffer, 100 mM NaCl, 5% glycerol, 2 mM DTT, pH 6.8 (Buffer C) and loaded on to a ceramic hydroxyapatite column. GST-tagged PRMT3 eluted with 25-400 mM phosphate in buffer C. Protein was concentrated and buffer was exchanged to 20 mM Tris, 150 mM NaCl, 5% glycerol, 5 mM β-mercaptoethanol, pH7.8 by ultrafiltration. The purity of recovered protein was 70%.
General Procedure for PRMT3 Enzyme Assays on Peptide Substrates.
The assays were all performed in a buffer consisting of 20 mM Bicine (pH=7.6), 1 mM TCEP, 0.005% BSG, and 0.002% Tween 20, prepared on the day of use. Compounds in 100% DMSO (1 ul) were spotted into a polypropylene 384-well V-bottom plates (Greiner) using a Platemate Plus outfitted with a 384-channel head (Thermo Scientific). DMSO (1 ul) was added to Columns 11, 12, 23, 24, rows A-H for the maximum signal control and 1 ul of SAH, a known product and inhibitor of PRMT3, was added to columns 11, 12, 23, 24, rows I-P for the minimum signal control. A cocktail (40 ul) containing the PRMT3 enzyme was added by Multidrop Combi (Thermo-Fisher). The compounds were allowed to incubate with PRMT3 for 30 min at room temperature, then a cocktail (10 ul) containing SAM and peptide was added to initiate the reaction (final volume=51 ul). The final concentrations of the components were as follows: PRMT3 was 0.5 nM, ^3H-SAM was 100 nM, non-radiolabeled SAM was 1.8 uM, peptide was 330 nM, SAH in the minimum signal control wells was 1 mM, and the DMSO concentration was 2%. The assays were stopped by the addition of potassium chloride (10 ul) to a final concentration of 100 mM. 50 ul of the reaction in the 384-well polypropylene plate was then transferred to a 384-well Flashplate and the biotinylated peptides were allowed to bind to the streptavidin surface for at least 1 hour before being washed once with 0.1% Tween20 in a Biotek ELx405 plate washer. The plates were then read in a PerkinElmer TopCount plate reader to measure the quantity of ^3H-labeled peptide bound to the Flashplate surface, measured as disintegrations per minute (dpm) or alternatively, referred to as counts per minute (cpm).
as §1, §2

One may read the IC50 as the midpoint of a concentration-inhibition curve.

T1 sequence (Q9NR22 whole entry, canonical isoform): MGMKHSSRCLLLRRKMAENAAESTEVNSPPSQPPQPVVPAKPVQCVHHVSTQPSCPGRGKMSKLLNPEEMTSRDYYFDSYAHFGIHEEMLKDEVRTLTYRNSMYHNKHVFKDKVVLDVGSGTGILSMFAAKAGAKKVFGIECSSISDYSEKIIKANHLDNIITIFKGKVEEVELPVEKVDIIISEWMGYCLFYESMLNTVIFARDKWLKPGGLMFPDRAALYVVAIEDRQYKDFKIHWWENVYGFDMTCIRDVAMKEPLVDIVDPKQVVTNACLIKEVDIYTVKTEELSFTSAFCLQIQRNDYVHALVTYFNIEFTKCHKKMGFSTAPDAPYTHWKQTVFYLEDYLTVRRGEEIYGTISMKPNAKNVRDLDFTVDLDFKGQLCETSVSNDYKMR

For `CNCCN(C)Cc1c[nH]nc1C#Cc1cccc(OC)c1` [Compound 1], the half-inhibitory concentration (IC50) against human PRMT8 fell in the range of 0.101 to 1 µM; on human PRMT3, 3.01 to 10 µM.
For `CNCCN(C)Cc1c[nH]nc1C#Cc1ccc(C(C)(C)C)cc1` [Compound 2], the 50% inhibitory concentration (IC50) at human PRMT8 is 0.101 to 1 µM; against human PRMT3, 1.01 to 3 µM.
Turning to `CNCCN(C)Cc1c[nH]nc1C#Cc1ccccc1` [Compound 3], the IC50 on human PRMT8 fell in the range of 0.101 to 1 µM; against human PRMT3, 3.01 to 10 µM.
`CNCCN(C)Cc1c[nH]nc1C#Cc1ccc(F)cc1` [Compound 4] had an IC50 against human PRMT8 of 0.101 to 1 µM.
With `CNCCN(C)Cc1c[nH]nc1/C=C/c1ccc(-c2ccccc2)cc1` [Compound 5], the IC50 against human PRMT8 lay in the range of 0.101 to 1 µM; at human PRMT3, 1.01 to 3 µM.
For `CNCCN(C)Cc1c[nH]nc1/C=C/c1ccc(C(F)(F)F)cc1` [Compound 6], in that order: 0.101 to 1 µM and 3.01 to 10 µM.
Consider `CNCCN(C)Cc1c[nH]nc1/C=C/c1ccc(OC)cc1` [Compound 7], for which the IC50 against human PRMT8 lay in the range of 0.101 to 1 µM; on human PRMT3, 3.01 to 10 µM.
For the compound `Cc1ccc(/C=C/c2n[nH]cc2CN(C)CCN)cc1` [Compound 8], the figures for the IC50 against human PRMT8 and on human PRMT3 were 0.101 to 1 µM and 3.01 to 10 µM, respectively.
With `CN(CCN)Cc1c[nH]nc1C1=CCOCC1` [Compound 10], at human PRMT8, the IC50 was in the range of 1.01 to 3 µM.
With `COc1cc(/C=C/c2n[nH]cc2CN(C)CCN)cc(OC)c1` [Compound 11], the IC50 on human PRMT8 lay in the range of 0.101 to 1 µM; against human PRMT3 it was 1.01 to 3 µM.
On to `CN(CCN)Cc1c[nH]nc1/C=C/c1ccc(F)cc1F` [Compound 13], for which the IC50 against human PRMT8 was 0.101 to 1 µM; against human PRMT3, 3.01 to 10 µM.
Consider `CN(CCN)Cc1c[nH]nc1/C=C/c1cc(C(F)(F)F)cc(C(F)(F)F)c1` [Compound 14], for which the IC50 fell in the range of 0.101 to 1 µM against human PRMT8 and 3.01 to 10 µM at human PRMT3.
As to `CN(CCN)Cc1c[nH]nc1/C=C/c1cc(F)cc(F)c1` [Compound 15], the IC50 is 0.101 to 1 µM on human PRMT8 and 1.01 to 3 µM against human PRMT3.
`CN(CCN)Cc1c[nH]nc1/C=C/c1cccc(C(F)(F)F)c1` [Compound 16]: the figures for the half-maximal inhibitory concentration (IC50) on human PRMT8 and on human PRMT3 were 0.101 to 1 µM and 3.01 to 10 µM, respectively.
For the compound `COc1cccc(/C=C/c2n[nH]cc2CN(C)CCN)c1` [Compound 17], the 50% inhibitory concentration (IC50) against human PRMT8 is 0.101 to 1 µM; against human PRMT3 it was 1.01 to 3 µM.
For `CN(CCN)Cc1c[nH]nc1/C=C/c1ccc(C(F)(F)F)cc1` [Compound 18], in that order: less than 0.1 µM and 1.01 to 3 µM.
For `COC/C=C/c1n[nH]cc1CN(C)CCN` [Compound 19], the IC50 at human PRMT8 is 1.01 to 3 µM; against human PRMT3 it was 3.01 to 10 µM.
For `CN(CCN)Cc1c[nH]nc1/C=C/c1cccc(F)c1` [Compound 20], in that order: 0.101 to 1 µM and 1.01 to 3 µM.
Compound `CC(C)c1n[nH]cc1CN(C)CCN` [Compound 21] had a concentration for half-maximal inhibition (IC50) on human PRMT8 of 3.01 to 10 µM.
Take `CN(CCN)Cc1c[nH]nc1C1CCCCC1` [Compound 22]: the IC50 against human PRMT8 was 0.101 to 1 µM; against human PRMT3 it was 3.01 to 10 µM.
As to `CN(CCN)Cc1c[nH]nc1CCc1ccc(F)cc1` [Compound 23, N^1-((3-(4-fluorophenethyl)-1H-pyrazol-4-yl)methyl)-N^1-methylethane-1,2-diamine], the values for the IC50 at human PRMT8 and at human PRMT3 were 0.101 to 1 µM and 3.01 to 10 µM, respectively.
Take `CN(CCN)Cc1c[nH]nc1/C=C/Cc1ccccc1` [Compound 24]: on human PRMT8, the concentration for half-maximal inhibition (IC50) is 0.101 to 1 µM.
Consider `CN(CCN)Cc1c[nH]nc1C1=CCCC1` [Compound 25], for which, on human PRMT8, the IC50 lay in the range of 1.01 to 3 µM.
`CN(CCN)Cc1c[nH]nc1C1CCC1` [Compound 26] showed an IC50 at human PRMT8 of 3.01 to 10 µM.
At human PRMT8, `CC(C)Cc1n[nH]cc1CN(C)CCN` [Compound 28, N^1-((3-iso-butyl-1H-pyrazol-4-yl)methyl)-N^1-methylethane-1,2-diamine] had an IC50 of 1.01 to 3 µM.
For the compound `CCCc1n[nH]cc1CN(C)CCN` [Compound 29], the IC50 on human PRMT8 was in the range of 1.01 to 3 µM.
On the same count and under the same terms, the figure for `Cc1n[nH]cc1CN(C)CCN` [Compound 30] is 3.01 to 10 µM; for `CN(CCN)Cc1c[nH]nc1C1CCCC1` [Compound 31] it is greater than 10 µM; for `CNCCN(C)Cc1c[nH]nc1C1CCN(C(=O)Cc2ccccc2)CC1` [Compound 32] it is 1.01 to 3 µM.
Turning to `CN(CCN)Cc1n[nH]cc1C1CCCCC1` [Compound 33], the IC50 on human PRMT8 lay in the range of 0.101 to 1 µM.
Take `CNCCN(C)Cc1c[nH]nc1C1CCN(C(=O)C(C)C)CC1` [Compound 34]: the IC50 against human PRMT8 was in the range of 0.101 to 1 µM.
On human PRMT8, `CC1CCC(c2c[nH]nc2CN(C)CCN)CC1` (centres unmarked) [Compound 35] had a 50% inhibitory concentration (IC50) of 0.101 to 1 µM.
`CN(CCN)Cc1n[nH]cc1C1CCC(C)(C)CC1` [Compound 36]: the IC50 against human PRMT8 fell in the range of 0.101 to 1 µM.
At human PRMT8, `CC1CCC(c2n[nH]cc2CN(C)CCN)CC1` (centres unmarked) [Compound 37, N^1-methyl-N^1-((3-(4-methylcyclohexyl)-1H-pyrazol-4-yl)methyl)ethane-1,2-diamine] displayed an IC50 of 0.101 to 1 µM.
At human PRMT8, `CN(CCN)Cc1c[nH]nc1C1CCC(C)(C)CC1` [Compound 38, N^1-((3-(4,4-dimethylcyclohexyl)-1H-pyrazol-4-yl)methyl)-N^1-methylethane-1,2-diamine] gave a 50% inhibitory concentration (IC50) of 0.101 to 1 µM.
Compound `CNCCN(C)Cc1c[nH]nc1C1CCN(CC(C)C)CC1` [Compound 39, N^1-((3-(1-isobutylpiperidin-4-yl)-1H-pyrazol-4-yl)methyl)-N^1,N^2-dimethylethane-1,2-diamine] registered an IC50 on human PRMT8 of 0.101 to 1 µM.
With `CNCCN(C)Cc1c[nH]nc1C1CCN(C)CC1` [Compound 41], the IC50 against human PRMT8 lay within 3.01 to 10 µM.
`CNCCN(C)Cc1c[nH]nc1C1CCNCC1` [Compound 42] showed an IC50 on human PRMT8 of 0.101 to 1 µM.

(Values after patent US11185531B2, “Arginine methyltransferase inhibitors and uses thereof” (Epizyme, Inc., priority 2013, dated 2021).)
